According to US20240132450A1, “MODULATORS OF G PROTEIN-COUPLED RECEPTOR 88” (ACADIA Pharmaceuticals Inc., priority 2020, published 2024):

Molecular target: hGPR88 receptor (Homo sapiens, UniProt Q9GZN0)
Experiment: hGPR88-HEK cAMP accumulation assay
Conditions: GRP88 agonist activity (EC50), HEK-293 cells expressing human recombinant GPR88, forskolin 200 nM, High/Medium/Low bands

Sequence of hGPR88 receptor (Q9GZN0 whole entry): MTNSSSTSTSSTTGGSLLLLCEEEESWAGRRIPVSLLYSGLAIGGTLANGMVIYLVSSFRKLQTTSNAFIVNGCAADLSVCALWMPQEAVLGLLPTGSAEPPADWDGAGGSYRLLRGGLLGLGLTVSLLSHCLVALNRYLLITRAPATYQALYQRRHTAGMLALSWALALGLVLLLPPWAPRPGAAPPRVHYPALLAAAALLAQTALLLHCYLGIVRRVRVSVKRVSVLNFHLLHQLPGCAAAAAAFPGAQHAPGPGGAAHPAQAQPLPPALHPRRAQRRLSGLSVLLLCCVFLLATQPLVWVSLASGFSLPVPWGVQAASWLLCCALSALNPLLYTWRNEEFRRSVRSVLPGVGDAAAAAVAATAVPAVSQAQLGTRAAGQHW

SMILES | EC50 [µM]
COCc1ccc(C23CC(NC(=O)C4CC4c4ccccn4)(C2)C3)cc1 (racemic) [Example 112, (rac-trans)-N-(3-(4-(methoxymethyl)phenyl)bicyclo[1.1.1]pentan-1-yl)-2-(pyridin-2-yl)cyclopropane-1-carboxamide] | > 5
COCc1ccc(-c2ccc(NC(=O)C3CC3c3ccccn3)cc2)cc1 (single isomer, unassigned) [Example 19, N-(4′-(methoxymethyl)-[1,1′-biphenyl]-4-yl)-2-(pyridin-2-yl)cyclopropane-1-carboxamide] | > 5
O=C(Nc1ccc(-c2ccc(OC3CC3)cc2)cc1)C1CC1c1ccccn1 (single isomer, unassigned) [Example 130, N-(4′-cyclopropoxy-[1,1′-biphenyl]-4-yl)-2-(pyridin-2-yl)cyclopropane-1-carboxamide] | > 5
CC(C)Oc1ccc(-c2ccc(NC(=O)C3CC3c3ccccn3)cc2)cn1 (single isomer, unassigned) [Example 134, N-(4-(6-isopropoxypyridin-3-yl)phenyl)-2-(pyridin-2-yl)cyclopropane-1-carboxamide] | > 5
COCc1ccc(-c2ccc(NC(=O)C(C)Oc3ccc(F)cc3)cc2)cc1 (centres unmarked) [Example 6] | > 5
CC(C)(Oc1ccc(F)cc1)C(=O)Nc1ccc(-c2ccc(C(F)(F)F)cc2)cc1 [Example 10, 2-(4-fluorophenoxy)-2-methyl-N-(4′-(trifluoromethyl)-[1,1′-biphenyl]-4-yl)propenamide] | > 5
COc1ccc(-c2ccc(NC(=O)C(C)(C)Oc3ccc(F)cc3)cc2)cc1 [Example 11, 2-(4-fluorophenoxy)-N-(4′-methoxy-[1,1′-biphenyl]-4-yl)-2-methylpropanamide] | > 5
CC(C)(Oc1ccc(F)cc1)C(=O)Nc1ccc(-c2ccc(OC(F)(F)F)cc2)cc1 [Example 12, 2-(4-fluorophenoxy)-2-methyl-N-(4′-(trifluoromethoxy)-[1,1′-biphenyl]-4-yl)propanamide] | > 5
CN(C)C(=O)c1ccc(-c2ccc(NC(=O)C(C)(C)Oc3ccc(F)cc3)cc2)cc1 [Example 16, 4′-(2-(4-fluorophenoxy)-2-methylpropanamido)-N,N-dimethyl-[1,1′-biphenyl]-4-carboxamide] | > 5
CCCN(C(=O)C(C)(C)Oc1ccc(F)cc1)c1ccc(-c2ccc(C)cc2)cc1 [Example 20, 2-(4-fluorophenoxy)-2-methyl-N-(4′-methyl-[1,1′-biphenyl]-4-yl)-N-propylpropanamide] | > 5
Cc1ccc(-c2ccc(N(CC(C)C)C(=O)C(C)(C)Oc3ccc(F)cc3)cc2)cc1 [Example 21, 2-(4-fluorophenoxy)-N-isobutyl-2-methyl-N-(4′-methyl-[1,1′-biphenyl]-4-yl)-2-methylpropanamide] | > 5
COCc1ccc(-c2ccc(N(CC(C)C)C(=O)C(C)(C)Oc3ccc(F)cc3)cc2)cc1 [Example 23, 2-(4-fluorophenoxy)-N-isobutyl-N-(4′-(methoxymethyl)-[1,1′-biphenyl]-4-yl)-2-methylpropanamide] | > 5
Cc1ncc(-c2ccc(NC(=O)C(C)(C)Oc3ccc(F)cc3)cc2)cn1 [Example 24, 2-(4-fluorophenoxy)-2-methyl-N-(4-(2-methylpyrimidin-5-yl)phenyl)propenamide] | > 5
CC(C)(Oc1ccc(F)cc1)C(=O)Nc1ccc(-c2cnc(C(F)(F)F)nc2)cc1 [Example 38, 2-(4-fluorophenoxy)-2-methyl-/-(4-(2-(trifluoromethyl)pyrimidin-5-yl)phenyl)propenamide] | > 5
COCc1ccc(-c2ccc(N(CC(C)(C)O)C(=O)C(C)(C)Oc3ccc(F)cc3)cc2)cc1 [Example 39, 2-(4-fluorophenoxy)-N-(2-hydroxy-2-methylpropyl)-N-(4′-(methoxymethyl)-[1,1′-biphenyl]-4-yl)-2-methylpropanamide] | 1 to 5
COCc1ccc(-c2ccc(NC(=O)C(C)(C)Oc3ccc(F)cc3)nc2)cc1 [Example 40, 2-(4-fluorophenoxy)-N-(5-(4-(methoxymethyl)phenyl)pyridin-2-yl)-2-methylpropanamide] | 1 to 5
CC(C)(Oc1ccc(F)cc1)C(=O)Nc1ccc(-c2ccc(OC3CC3)cc2)cc1 [Example 41, N-(4′-cyclopropoxy-[1,1′-biphenyl]-4-yl)-2-(4-fluorophenoxy)-2-methylpropanamide] | > 5
CC(C)Cc1ccc(-c2ccc(NC(=O)C(C)(C)Oc3ccc(F)cc3)cc2)cc1 [Example 42, 2-(4-fluorophenoxy)-N-(4′-isobutyl-[1,1′-biphenyl]-4-yl)-2-methylpropanamide] | > 5
CC(c1ccc(-c2ccc(NC(=O)C(C)(C)Oc3ccc(F)cc3)cc2)cc1)N1CCOCC1 (centres unmarked) [Example 47, 2-(4-fluorophenoxy)-2-methyl-N-(4′-(1-morpholinoethyl)-[1,1′-biphenyl]-4-yl)propanamide] | 1 to 5
CCOc1ccc(-c2ccc(NC(=O)C(C)(C)Oc3ccc(F)cc3)cc2)cc1 [Example 51, N-(4′-ethoxy-[1,1′-biphenyl]-4-yl)-2-(4-fluorophenoxy)-2-methylpropanamide] | > 5
CC(C)(Oc1ccc(F)cc1)C(=O)Nc1ccc(-c2ccc(S(C)(=O)=O)cc2)cc1 [Example 52, 2-(4-fluorophenoxy)-2-methyl-N-(4′-(methylsulfonyl)-[1,1′-biphenyl]-4-yl)propenamide] | > 5
COCc1ccc(-c2ccc(NC(=O)C(C)(C)Cc3ccccc3)cc2)cc1 [Example 56, N-(4′-(methoxymethyl)-[1,1′-biphenyl]-4-yl)-2,2-dimethyl-3-phenylpropanamide] | 1 to 5

Second part, the compound after the results:

EC50 [µM] | SMILES
1 to 5 | COCc1ccc(C23CC(NC(=O)C4CC4c4ccccn4)(C2)C3)cc1 (racemic) [Example 110, (rac-trans)-N-(3-(4-(methoxymethyl)phenyl)bicyclo[1.1.1]pentan-1-yl)-2-(pyridin-2-yl)cyclopropane-1-carboxamide]
1 to 5 | COCc1ccc(-c2ccc(NC(=O)C3CC3c3ccccn3)nc2)cc1 (racemic) [Example 120, (rac-trans)-N-(5-(4-(methoxymethyl)phenyl)pyridin-2-yl)-2-(pyridin-2-yl)cyclopropane-1-carboxamide]
1 to 5 | O=C(Nc1ccc(-c2ccc(CN3CCOCC3)cc2)cc1)C1CC1c1ccccn1 (single isomer, unassigned) [Example 77, (1R*,2R*)-N-(4′-(morpholinomethyl)-[1,1′-biphenyl]-4-yl)-2-(pyridin-2-yl)cyclopropane-1-carboxamide]
1 to 5 | CC(c1ccc(-c2ccc(NC(=O)C(C)(C)Oc3ccc(F)cc3)cc2)cc1)N1CCOCC1 (single isomer, unassigned) [Example 122, 2-(4-fluorophenoxy)-2-methyl-N-(4′-(1-morpholinoethyl)-[1,1′-biphenyl]-4-yl)propanamide]
< 1 | CC(c1ccc(-c2ccc(NC(=O)C(C)(C)Oc3ccc(F)cc3)cc2)cc1)N1CCOCC1 (single isomer, unassigned) [Example 123, 2-(4-fluorophenoxy)-2-methyl-N-(4′-(1-morpholinoethyl)-[1,1′-biphenyl]-4-yl)propanamide]
1 to 5 | CC(C)Oc1ccc(-c2ccc(NC(=O)C3CC3c3ccccn3)cc2)cn1 (single isomer, unassigned) [Example 133, N-(4-(6-isopropoxypyridin-3-yl)phenyl)-2-(pyridin-2-yl)cyclopropane-1-carboxamide]
1 to 5 | CCN(C(=O)C(C)(C)Oc1ccc(F)cc1)c1ccc(-c2ccc(COC)cc2)cc1 [Example 14, N-ethyl-2-(4-fluorophenoxy)-N-(4′-(methoxymethyl)-[1,1′-biphenyl]-4-yl)-2-methylpropanamide]
1 to 5 | COCCN(C(=O)C(C)(C)Oc1ccc(F)cc1)c1ccc(-c2ccc(COC)cc2)cc1 [Example 15, 2-(4-fluorophenoxy)-N-(2-methoxyethyl)-N-(4′-(methoxymethyl)-[1,1′-biphenyl]-4-yl)-2-methylpropanamide]
1 to 5 | CCCN(C(=O)C(C)(C)Oc1ccc(F)cc1)c1ccc(-c2ccc(COC)cc2)cc1 [Example 22, 2-(4-fluorophenoxy)-N-(4′-(methoxymethyl)-[1,1′-biphenyl]-4-yl)-2-methyl-N-propylpropanamide]
1 to 5 | CC(C)(Oc1ccc(F)cc1)C(=O)Nc1ccc(-c2ccc(C(=O)N3CCOCC3)cc2)cc1 [Example 27, 2-(4-fluorophenoxy)-2-methyl-N-(4′-(morpholine-4-carbonyl)-[1,1′-biphenyl]-4-yl)propenamide]
< 1 | CCCCN(C(=O)C(C)(C)Oc1ccc(F)cc1)c1ccc(-c2ccc(COC)cc2)cc1 [Example 28, N-butyl-2-(4-fluorophenoxy)-N-(4′-(methoxymethyl)-[1,1′-biphenyl]-4-yl)-2-methylpropanamide]
1 to 5 | COCc1ccc(-c2ccc(N(CC3CC3)C(=O)C(C)(C)Oc3ccc(F)cc3)cc2)cc1 [Example 29, N-(cyclopropylmethyl)-2-(4-fluorophenoxy)-N-(4′-(methoxymethyl)-[1,1′-biphenyl]-4-yl)-2-methylpropanamide]
1 to 5 | CCOc1ncc(-c2ccc(NC(=O)C(C)(C)Oc3ccc(F)cc3)cc2)cn1 [Example 30, N-(4-(2-ethoxypyrimidin-5-yl)phenyl)-2-(4-fluorophenoxy)-2-methylpropanamide]
1 to 5 | COCc1ccc(-c2ccc(N(CCO)C(=O)C(C)(C)Oc3ccc(F)cc3)cc2)cc1 [Example 33, 2-(4-fluorophenoxy)-N-(2-hydroxyethyl)-N-(4′-(methoxymethyl)-[1,1′-biphenyl]-4-yl)-2-methylpropanamide]
< 1 | CC(C)Oc1ccc(-c2ccc(NC(=O)C(C)(C)Oc3ccc(F)cc3)cc2)cc1 [Example 46, 2-(4-fluorophenoxy)-N-(4′-isopropoxy-[1,1′-biphenyl]-4-yl)-2-methylpropanamide]
< 1 | COCc1ccc(-c2ccc(NC(=O)C(C)(C)Cc3ccc(F)cc3)cc2)cc1 [Example 55, 3-(4-fluorophenyl)-N-(4′-(methoxymethyl)-[1,1′-biphenyl]-4-yl)-2,2-dimethylpropanamide]
